The results in this text go back to patent US20030148954A1, “Agents and methods for modulating activator protein-1-mediated cellular processes” (Wisconsin Alumni Research Foundation, priority 2001, published 2003).

The test system of one test is CMV enhancer. Put plainly: pCMVβgal β-galactosidase reporter, transient transfection of K562 cells. The test is classed as cell-based, human. The procedure: Transient Transfections—K562 cells (5×10^5) were collected by centrifugation at 240×g for 8 min at 4° C. and resuspended in 4 ml of complete IMEM. Plasmid DNAs (1 μg of reporter and 2 μg of effector) were added to 150 μl of IMEM, incubated with Superfect (4 μl/1 μg DNA; Qiagen) for 10 min at room temperature and then added to cells.
For each transfection, cells were incubated for 26 h after transfection and then treated with TPA (final concentration: 5 nM) or the vehicle (DMSO). […] Luciferase activity was normalized by the protein content of the lysates, determined by Bradford assay using γ-globulin as a standard.

The test system of another test is ERK1/2. The test can be described thus: Western blot with phospho-specific antibodies, ERK1/2. The test is classed as cell-based, human. To be noted: K562-NIC-1 versus K562-Babe, 5 nM TPA 30 min. The procedure:
(§1) Stable Transfection—K562 cells were stably transfected by electroporation with a Bio-Rad Gene pulser electroporator. Cells (5×10^6) were washed with ice-cold PBS, resuspended in 0.5 ml of ice-cold PBS, mixed with 5 μg linearized plasmid DNA, and subjected to electroporation (960 microfarad; 220 V) in a 0.4 cm-wide electroporation cuvette (BTX). pBabe and pNIC-1 were linearized with NotI. Cells were then added to 20 ml of complete IMEM, grown for 48 h, and diluted in complete IMEM containing 1.5 μg/ml puromycin (pools of K562-Babe and K562-NIC-1 cells). Stably transfected cells were analyzed for erythroid differentiation as soon as the pools were generated by benzidine staining to reduce the probability of phenotypic changes that may result from prolonged growth.
(§2) To measure the phosphorylation state of components of the MAPK pathway, K562-Babe and K562-NIC-1 cells (1×10^6) were collected after treatment with 5 nM TPA or DMSO for 30 min. Cells were washed once with ice-cold PBS, cell pellets were resuspended in 30 μl ice-cold PBS and were immediately boiled in 70 μl SDS sample buffer for 10 min. Proteins (10 μl) were resolved by SDS-PAGE on a 10% acrylamide gel and transferred to Immobilon P membrane (Millipore). […] Antigen-antibody complexes were detected with ECL Plus™ (Amersham Life Science) according to manufacturer's instructions.
A general note: Immunoblotting shows a protein as a band on a membrane.

Another test relates to p38. The test can be described thus: Western blot with phospho-specific antibodies, p38. The test is classed as cell-based, human. To be noted: K562-NIC-1 versus K562-Babe, 5 nM TPA 30 min. The procedure: as §1, §2
The target in a further test is T1, CBF1 (Homo sapiens, UniProt Q06330).
T1 construct: endogenous in cells; host or cells: K562 cells retrovirally infected with NIC-1 expression vectors
The test can be described thus: Coimmunoprecipitation of CBF1 with NIC-1 from K562 cell lysates. To be noted: K562 cells, retroviral infection. The test is classed as binding. How it is done: Retroviral Infection—Modified 293 human embryonic kidney cells were grown in 10 cm dishes until they were subconfluent and were cotransfected with plasmid DNA (15 μg) and pMD.G (6 μg) by the calcium phosphate transfection method as described previously (55). The medium was changed once after 10 h of transfection to remove the calcium phosphate. The pMD.G expression vector encodes the viral envelope protein VSV-G. The modified 293 cells were previously stably transfected with pol and gag genes (gift of Shigeki Miyamoto, University of Wisconsin Medical School). After additional incubation for 12 h, the medium was removed and K562 cells (10 ml, 3×10^5/ml) were added with polybrene (4 μg/ml) in complete IMEM and incubated for 36 h. The infected cells were separated from adherent 293 cells and then subjected to immunoprecipitation analysis.
Western Blotting—To detect the expression of Myc-tagged wild type NIC-1 and NIC-1 mutants, whole cell lysates were prepared in Nonidet P-40 lysis buffer (50 mM Hepes, pH 7.4, 1 mM EDTA, 150 mM NaCl, 10% glycerol, 1% Nonidet P-40, 2 mM DTT, 0.2 mM phenylmethanesulfonyl fluoride, and 20 μg/ml leupeptin). […] The proteins were transferred to an Immobilon P membrane (Millipore) and detected by immunoblotting with the anti-Myc tag monoclonal antibody 9E10. CBF1 was detected by immunoblotting with anti-CBF1 polyclonal antisera (Lam & Bresnick, unpublished data).

T1 sequence (Q06330 whole entry): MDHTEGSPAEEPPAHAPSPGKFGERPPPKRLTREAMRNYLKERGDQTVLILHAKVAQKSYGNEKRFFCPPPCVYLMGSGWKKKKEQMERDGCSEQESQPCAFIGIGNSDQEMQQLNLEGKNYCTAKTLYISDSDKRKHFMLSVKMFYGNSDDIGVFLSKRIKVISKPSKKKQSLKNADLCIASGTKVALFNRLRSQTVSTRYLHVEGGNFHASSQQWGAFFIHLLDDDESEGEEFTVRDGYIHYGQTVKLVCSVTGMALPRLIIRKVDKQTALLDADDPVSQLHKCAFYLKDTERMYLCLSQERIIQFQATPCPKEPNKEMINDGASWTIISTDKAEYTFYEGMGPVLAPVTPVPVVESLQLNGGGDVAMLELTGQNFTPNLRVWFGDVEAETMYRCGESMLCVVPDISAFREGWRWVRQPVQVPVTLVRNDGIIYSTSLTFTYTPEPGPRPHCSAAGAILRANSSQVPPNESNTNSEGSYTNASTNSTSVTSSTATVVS

Turning to “NIC-1: constitutively active Notch-1 intracellular domain, amino acids 1759-2556 of human Notch-1 with carboxyl-terminal Myc tag, expressed from pBabe-NIC-1”, the “increase of TPA induced activity of pCMVβgal” value in the test on CMV enhancer (K562, TPA induced) is recorded as roughly 2 fold. In the test on CMV enhancer (K562, basal), the “effect on basal activity of pCMVβgal” value is recorded as “no effect”. In the test with ERK1/2, the “basal and TPA-induced ERK1/2 phosphorylation” value is “slightly higher”. Also, the “effect on TPA-induced or basal phosphorylation of p38” value in the test on p38 is “did not affect”. Further, the “recovery of CBF1 in anti-NIC-1 immunoprecipitates” value with CBF1 is reported as “coimmunoprecipitated”.
